Test results reported in patent publication US20170226518A1, “COMPOSITIONS AND METHODS FOR TREATING CANCER” (Autotelic LLC, priority 2016, published 2017).
In the oligonucleotide strings, read from the 5' end, every base follows the letter of its sugar. An asterisk marks phosphorothioate; unmarked linkages are phosphodiester. Other units and linkages are bracketed, terminal groups are in braces. A string of capitals states the bases alone. d = 2'-deoxy (DNA)

Key:
A-172 glioma cells = test: Migration of A-172 glioma cells; type: cell-based; settings: AP12009 10 μM as monotherapy, compared with untreated control
Procedure: A-172 glioma cells were treated with a combination of AP12009 (trabedersen) 0 to 10 μM) and different concentrations of TMZ (temozolomide) for 7 days (treatment schedule 2*2/1*3 d).

[1] = Phase I/II dose escalation study P-001: safety and tolerability (MTD, DLT, TEAE, SAE), i.v. infusion; type: in vivo, human
Procedure: Over-expression of transforming growth factor-beta 2 (TGF-β2) is associated with poor prognosis and plays a key role for malignant progression of various tumors by inducing proliferation, metastasis, angiogenesis and immunosuppression. P-001 trial of trabedersen—Safety and Tolerability of AP 12009 (trabedersen), Administered I.V. in Patients With Advanced Tumors Known to Overproduce TGFβ2, was evaluated to determine if treatment with trabedersen primed the tumors to subsequent chemotherapy.
In the instant study, the primary objective was to determine the Maximum Tolerated Dose (MTD) and the Dose Limited Toxicity (DLT) of two cycles of trabedersen administered intravenously (i.v.) for either 7 days every other week (i.e. 7 days on/7 days off) or for 4 days every other week (4 days on/10 days off). The secondary objective included assessment of antitumor activity of trabedersen administered intravenously for either 7 days every other week (i.e. 7 days on/7 days off) or for 4 days every other week (4 days on/10 days off).
The escalation scheme of this study aimed to determinate the MTD of two cycles of trabedersen (so called ‘core study period’) administered as a continuous i.v. infusion for 7 days every other week (7-days-on/7-days-off) or for 4 days every other week (4-days-on/10-days-off).
In general, it was planned to enroll a cohort of at least 3 evaluable patients per treatment group. For each cohort, the safety data obtained until end of the core study period (period for DLT-assessment, Cycle 1 and Cycle 2) were assessed in an interim analysis and evaluated by a Data and Safety Monitoring Board (DSMB). […] If 2 of these 3 patients experienced a DLT, the number of evaluable patients for the subsequent treatment group was increased to 6 for further evaluation of toxicity. Patients who were withdrawn from the study due to adverse events (AEs) attributed to DLT by the treating clinician, were not replaced but were used to determine the MTD and to evaluate the safety of the study drug. If patients were withdrawn due to other reasons, they were replaced until the treatment group was complete.
The MTD was determined according to the following procedure: If 2 out of 3 patients of 1 cohort experienced a DLT, 3 more patients were enrolled in the same treatment group. If at least 1 of these additional 3 patients also met the toxicity criteria for a DLT, the MTD for two cycles was determined; otherwise the dose escalation was continued upon agreement with the DSMB. MTD for two cycles was then defined as the dose at which no more than 2 out of 3, or 2 out of 6 patients of the same treatment group experienced a DLT. This procedure was followed until the MTD was reached.
After dose escalation had been completed, an additional larger cohort of patients was enrolled and treated with a dose of 140 mg/m^2/day employing the 4-days-on/10-days-off schedule, with endorsement by the DSMB. This cohort was to include at least 12 patients with a histologically or cytologically confirmed diagnosis of stage III or IV pancreatic cancer, corresponding to AJCC 1997 stage IVa and IVb, respectively, and at least 12 patients with stage III or IV melanoma.
The safety population comprised of 61 patients, representing all patients for whom at least once a trabedersen infusion was started. According to the protocol, the MTD was determined according to the following procedure: if 2 out of 3 patients of one cohort experience dose-limiting toxicity, 3 more patients were enrolled in the same treatment group. If at least 1 more patient of this second cohort met the toxicity criteria, MTD for two cycles has been determined (otherwise escalation was continued). MTD for two cycles was then defined as the dose at which no more than 2 out of 3 or 2 out of 6 patients of the same treatment group experienced DLT. […] In the case that 2 patients of the first cohort experienced DLTs that clearly indicated attainment of the MTD, the second cohort could also be omitted. […]

[2] = 4-days-on and 10-days-off schedule
[3] = 4-days-on, 10-daysoff schedule (N = 44)
[4] = 7-days-on and 7-days-off schedule
[5] = 7-days-on, 7-daysoff schedule (N = 17)

Substance: trabedersen: TGFβ2 specific phosphorothioate antisense oligodeoxynucleotide with the sequence 5′-CGGCATGTCTATTTTGTA-3′ (SEQ ID No: 1) (antisense dC*dG*dG*dC*dA*dT*dG*dT*dC*dT*dA*dT*dT*dT*dT*dG*dT*dA)
- effect on migration of A-172 cells (A-172 glioma cells): did not affect migration
- DLT observed ([1]; 140 mg/m^2/day, 4-days-on and 10-days-off schedule, one patient): dose-limiting Grade 3 upper gastrointestinal hemorrhage
- patients who experienced a DLT ([1]; 240 mg/m^2/day, 7-days-on and 7-days-off, 2 Grade 3 thrombocytopenia, 1 Grade 3 maculopapular rash): 3 patients
- frequency of patients with TEAEs that led to treatment discontinuation [1, 2]: 15.9%
- patients with TEAEs that led to treatment discontinuation [1, 2]: 7 patients
- Any SAE: No. (%) of patients with SAE [1, 3]: 18 (40.9) No. (%) of patients
- Any SAE: No. of SAEs [1, 3]: 28 No. of SAEs
- Ascites: No. (%) of patients with SAE [1, 3]: 0 No. (%) of patients
- Cancer Pain: No. (%) of patients with SAE [1, 3]: 2 (4.5) No. (%) of patients
- Cancer Pain: No. of SAEs [1, 3]: 2 No. of SAEs
- Catheter related Infection: No. (%) of patients with SAE [1, 3]: 1 (2.3) No. (%) of patients
- Catheter related Infection: No. of SAEs [1, 3]: 1 No. of SAEs
- Cholangitis: No. (%) of patients with SAE [1, 3]: 3 (6.8) No. (%) of patients
- Cholangitis: No. of SAEs [1, 3]: 3 No. of SAEs
- Cholestasis: No. (%) of patients with SAE [1, 3]: 1 (2.3) No. (%) of patients
- Cholestasis: No. of SAEs [1, 3]: 1 No. of SAEs
- GI hemorrhage: No. (%) of patients with SAE [1, 3]: 1 (2.3) No. (%) of patients
- GI hemorrhage: No. of SAEs [1, 3]: 2 No. of SAEs
- Pneumonia: No. (%) of patients with SAE [1, 3]: 0 No. (%) of patients
- Upper GI hemorrhage: No. (%) of patients with SAE [1, 3]: 1 (2.3) No. (%) of patients
- Upper GI hemorrhage: No. of SAEs [1, 3]: 1 No. of SAEs
- frequency of patients with TEAEs that led to treatment discontinuation [1, 4]: 41.2%
- patients with TEAEs that led to treatment discontinuation [1, 4]: 7 patients
- daily dose of MTD ([1]; 7-days-on and 7-days-off schedule, approx.): approx. 4 mg/kg/day
- Any SAE: No. (%) of patients with SAE [1, 5]: 12 (70.6) No. (%) of patients
- Any SAE: No. of SAEs [1, 5]: 28 No. of SAEs
- Ascites: No. (%) of patients with SAE [1, 5]: 3 (17.6) No. (%) of patients
- Ascites: No. of SAEs [1, 5]: 3 No. of SAEs
- Cancer Pain: No. (%) of patients with SAE [1, 5]: 0 No. (%) of patients
- Catheter related Infection: No. (%) of patients with SAE [1, 5]: 2 (11.8) No. (%) of patients
- Catheter related Infection: No. of SAEs [1, 5]: 2 No. of SAEs
- Cholangitis: No. (%) of patients with SAE [1, 5]: 1 (5.9) No. (%) of patients
- Cholangitis: No. of SAEs [1, 5]: 1 No. of SAEs
- Cholestasis: No. (%) of patients with SAE [1, 5]: 1 (5.9) No. (%) of patients
- Cholestasis: No. of SAEs [1, 5]: 1 No. of SAEs
- GI hemorrhage: No. (%) of patients with SAE [1, 5]: 2 (11.8) No. (%) of patients
- GI hemorrhage: No. of SAEs [1, 5]: 3 No. of SAEs
- Pneumonia: No. (%) of patients with SAE [1, 5]: 3 (17.6) No. (%) of patients
- Pneumonia: No. of SAEs [1, 5]: 3 No. of SAEs
- Upper GI hemorrhage: No. (%) of patients with SAE [1, 5]: 1 (5.9) No. (%) of patients
- Upper GI hemorrhage: No. of SAEs [1, 5]: 1 No. of SAEs
- Maximum Tolerated Dose (MTD) ([1]; 4 days on and 10 days off regimen, MTD not reached at highest dose tested): > 330 mg/m^2/d
- Maximum Tolerated Dose (MTD) ([1]; 7 days on and 7 days off regimen, continuous i.v. infusion, two cycles): 160 mg/m^2/d
- Any SAE: No. (%) of patients with SAE ([1]; Total (N = 61)): 30 (49.2) No. (%) of patients
- Any SAE: No. of SAEs ([1]; Total (N = 61)): 56 No. of SAEs
- Ascites: No. (%) of patients with SAE ([1]; Total (N = 61)): 3 (4.9) No. (%) of patients
- Ascites: No. of SAEs ([1]; Total (N = 61)): 3 No. of SAEs
- Cancer Pain: No. (%) of patients with SAE ([1]; Total (N = 61)): 2 (3.3) No. (%) of patients
- Cancer Pain: No. of SAEs ([1]; Total (N = 61)): 2 No. of SAEs
- Catheter related Infection: No. (%) of patients with SAE ([1]; Total (N = 61)): 3 (4.9) No. (%) of patients
- Catheter related Infection: No. of SAEs ([1]; Total (N = 61)): 3 No. of SAEs
- Cholangitis: No. (%) of patients with SAE ([1]; Total (N = 61)): 4 (6.6) No. (%) of patients
- Cholangitis: No. of SAEs ([1]; Total (N = 61)): 4 No. of SAEs
- Cholestasis: No. (%) of patients with SAE ([1]; Total (N = 61)): 2 (3.3) No. (%) of patients
- Cholestasis: No. of SAEs ([1]; Total (N = 61)): 2 No. of SAEs
- GI hemorrhage: No. (%) of patients with SAE ([1]; Total (N = 61)): 3 (4.9) No. (%) of patients
- GI hemorrhage: No. of SAEs ([1]; Total (N = 61)): 3 No. of SAEs
- Pneumonia: No. (%) of patients with SAE ([1]; Total (N = 61)): 3 (4.9) No. (%) of patients
- Pneumonia: No. of SAEs ([1]; Total (N = 61)): 3 No. of SAEs
- Upper GI hemorrhage: No. (%) of patients with SAE ([1]; Total (N = 61)): 2 (3.3) No. (%) of patients
- Upper GI hemorrhage: No. of SAEs ([1]; Total (N = 61)): 2 No. of SAEs
- frequency of patients with TEAEs that led to treatment discontinuation ([1]; all patients): 23.0%
- patients with TEAEs that led to treatment discontinuation ([1]; all patients): 14 patients
- total of TEAEs that led to treatment discontinuation ([1]; all patients): 23 TEAEs
- frequency of patients with TEAEs that led to treatment discontinuation ([1]; colorectal cancer): 40.0%
- patients with TEAEs that led to treatment discontinuation ([1]; colorectal cancer): 2 patients
- frequency of patients with TEAEs that led to treatment discontinuation ([1]; melanoma): 15.8%
- patients with TEAEs that led to treatment discontinuation ([1]; melanoma): 3 patients
- frequency of patients with TEAEs that led to treatment discontinuation ([1]; pancreatic cancer): 24.3%
- patients with TEAEs that led to treatment discontinuation ([1]; pancreatic cancer): 9 patients
- patients for whom a DLT was proclaimed ([1]; whole study: 2 pancreatic carcinoma, 2 colorectal cancer): 4 patients
